Measurements as given in US10100006B2, “Compound having immune disease treatment effect and use thereof” (THE CATHOLIC UNIVERSITY OF KOREA INDUSTRY—ACADEMIC …, priority 2014, dated 2018).

Columns and labels:
IgG1 = assay: Autoantibody production, sandwich ELISA: IgG1; format: cell-based, mouse
TNF-a [1] = assay: Inflammatory gene expression, RT-PCR: TNF-a; format: cell-based, mouse; settings: control = 1
Total IgG = assay: Autoantibody production, sandwich ELISA: Total IgG; format: cell-based, mouse
IL-6 = assay: Production of inflammatory cytokines, ELISA: IL-6, mouse spleen cells; format: cell-based
MMP-9 = assay: Inflammatory gene expression, RT-PCR: MMP-9; format: cell-based, mouse; settings: control = 1
IFN-r [2] = assay: Production of inflammatory cytokines, ELISA: IFN-r, lymphocytes of human peripheral blood; format: cell-based; settings: D: Lymphocytes of human peripheral blood
Procedure: (§1) Further, in a lupus-developed mouse model, a sanroque mouse used in a lupus model in the art was used and the human P.B group was used by obtaining lymphocytes from the human peripheral blood. The isolation of spleen cells and the isolation of lymphocytes from each mouse and the human peripheral blood were performed by a general method which was widely known in the art and the obtained cells were incubated for 72 h under the anti-CD3 0.5 μg/ml stimulation condition, activated, and then used.
(§2) In order to verify whether the novel compounds of the present invention have an effect on inflammation and the production of inflammatory cytokines as cause substances of the immune diseases, the inventors analyzed the production degree of IL-17, IL-6, TNF-α, IFN-γ, MMP-9, and STAT-3 and the expression degree of mRNA of these cytokines by targeting each test group. The production degree of the inflammatory cytokines was analyzed through an ELISA after obtaining a supernatant by targeting cells which were treated with the compound of the present invention and incubated, and particularly, the cells reacted with cytokine-specific antibodies anti-IL-17, anti-IL-6, anti-TNF-α, anti-IFN-γ, anti-MMP-9, and anti-STAT-3 all night at […] and then non-specific binding was blocked with a blocking solution (1% BSA/PBST). Thereafter, each biotinylated antibody was reacted at room temperature for 2 hrs, washed four times, and then reacted at room temperature for 2 hrs after diluting and adding an extravidin-alkaline phosphatase conjugate. Thereafter, a PNPP/DEA solution was added and colored, and then the absorbance was measured at a wavelength of 405 nm.

Treg cells = assay: Treg cell-induced activity, flow cytometry; format: cell-based, mouse; settings: TCR condition
IL-17 [3] = assay: Production of inflammatory cytokines, ELISA: IL-17, mouse spleen cells; format: cell-based
[4] = tested on: cells in each test group disclosed in Table 3; assay: Cytotoxicity analysis (MTT assay); format: cell-based, mouse; human; settings: treatment for each concentration, 72 hrs; normal cells and disease-group cells; compared with control or metformin-treated group
Procedure: In order to verify whether the compounds synthesized in the present invention causes the cytotoxicity in the cells, an MTT assay was performed, target cells were divided to be the number of 2×10^5 cells per well on a 96 well plate, treated with the compounds of the present invention for each concentration, incubated for 72 hrs, added with an MTT solution (0.5% 3-4,5-dimethyl thiazol-2-yl)-2,5-diphenyl-2H-tetrazolium bromide), and incubated for 4 hrs again. Thereafter, absorbance at 540 nm was measured by an enzymelinked immunospecific assay (ELISA) meter to observe the cytotoxicity.
In order to verify whether the novel compounds synthesized in Example 1 have the cytotoxicity, a cell survival rate was verified through the MTT assay by targeting cells in each test group disclosed in Table 3 above. That is, the cells of each test group were divided according to the number of 2×10^5 cells per well and treated with the novel synthesized compounds of the present invention for each concentration, and the cell survival rate was analyzed.

TNF-a [5] = assay: Production of inflammatory cytokines, ELISA: TNF-a, mouse spleen cells; format: cell-based
IFN-r [6] = assay: Production of inflammatory cytokines, ELISA: IFN-r, mouse spleen cells; format: cell-based
IL-17 [7] = assay: Production of inflammatory cytokines, ELISA: IL-17, lymphocytes of human peripheral blood; format: cell-based; settings: D: Lymphocytes of human peripheral blood
Procedure: as §1, §2

IgG2 = assay: Autoantibody production, sandwich ELISA: IgG2; format: cell-based, mouse
STAT3 = assay: Inflammatory gene expression, RT-PCR: STAT3; format: cell-based; settings: A: Normal mouse cells; control = 1
Th17 cells = assay: Inhibition of Th17 cells, flow cytometry; format: cell-based, mouse
osteoclasts = assay: Inhibition of differentiation of osteoclasts, TRAP staining; format: cell-based, mouse; settings: M-CSF and RANKL

SMILES: CCN(C(=N)NC(=N)N)c1ccc(F)cc1 [SD-282, N-Ethyl-N-(4-fluorophenyl) biguanide]
- IgG1 (IgG1; A: Normal mouse cells): 1 ng/mL
- IgG1 (IgG1; B: Rheumatoid arthritis cells): 218.7 ng/mL
- IgG1 (IgG1; C: Lupus cells): 425.4 ng/mL
- TNF-a gene expression (TNF-a [1]; A: Normal mouse cells): 0.07 gene expression
- TNF-a gene expression (TNF-a [1]; B: Rheumatoid arthritis cells): 0.06 gene expression
- TNF-a gene expression (TNF-a [1]; C: Lupus cells): 0.8 gene expression
- Total IgG (Total IgG; A: Normal mouse cells): 0.7 ng/mL
- Total IgG (Total IgG; B: Rheumatoid arthritis cells): 60.3 ng/mL
- Total IgG (Total IgG; C: Lupus cells): 127.7 ng/mL
- IL-6 production (IL-6; A: Normal mouse cells): 1.3 ng/mL
- IL-6 production (IL-6; B: Rheumatoid arthritis cells): 1.3 ng/mL
- IL-6 production (IL-6; C: Lupus cells): 1 ng/mL
- MMP-9 gene expression (MMP-9; A: Normal mouse cells): 0.1 gene expression
- MMP-9 gene expression (MMP-9; B: Rheumatoid arthritis cells): 0.08 gene expression
- MMP-9 gene expression (MMP-9; C: Lupus cells): 1.3 gene expression
- IFN-r production (IFN-r [2]): 0.1 ng/mL
- Treg (Treg cells; A: Normal mouse cells): 2.5
- Treg (Treg cells; B: Rheumatoid arthritis cells): 4.6
- Treg (Treg cells; C: Lupus cells): 2.9
- IL-17 production (IL-17 [3]; A: Normal mouse cells): 1.7 ng/mL
- IL-17 production (IL-17 [3]; B: Rheumatoid arthritis cells): 2.1 ng/mL
- IL-17 production (IL-17 [3]; C: Lupus cells): 0.6 ng/mL
- cytotoxicity (cell survival rate, MTT) [4]: cytotoxicity was not observed
- TNF-a production (TNF-a [5]; A: Normal mouse cells): 0.4 ng/mL
- TNF-a production (TNF-a [5]; B: Rheumatoid arthritis cells): 0.4 ng/mL
- TNF-a production (TNF-a [5]; C: Lupus cells): 0.7 ng/mL
- IFN-r production (IFN-r [6]; A: Normal mouse cells): 3.3 ng/mL
- IFN-r production (IFN-r [6]; B: Rheumatoid arthritis cells): 2.9 ng/mL
- IFN-r production (IFN-r [6]; C: Lupus cells): 7.6 ng/mL
- IL-17 production (IL-17 [7]): 0.1 ng/mL
- IgG2 (IgG2; A: Normal mouse cells): 37.1 ng/mL
- IgG2 (IgG2; B: Rheumatoid arthritis cells): 38.3 ng/mL
- IgG2 (IgG2; C: Lupus cells): 110.9 ng/mL
- STAT3 gene expression (STAT3): 0.6 gene expression
- Th17 (Th17 cells; TCR condition, A: Normal mouse cells): 1.2
- Th17 (Th17 cells; TCR condition, B: Rheumatoid arthritis cells): 1.5
- Th17 (Th17 cells; TCR condition, C: Lupus cells): 0.9
- Th17 (Th17 cells; Th17 condition (Th17 differentiation condition), A: Normal mouse cells): 0.5
- TRAP + Cell (osteoclasts; A: Normal mouse cells): 157
- TRAP + Cell (osteoclasts; B: Rheumatoid arthritis cells): 89
